Experimental data reported in patent EP1203770A1 (priority 1992, dated 1994).
“And” between values parts separate entries of the source, which are not always exact repeats. Equal values may be shown once.

Target: T1, HIV-1 protease (Human immunodeficiency virus type 1 group M subtype B, UniProt P04585)
T1 construct: The protease (or proteinase), consisting of only 99 amino acids, is among the smallest enzymes known
Assay: In vitro HIV protease inhibitory assay (HIV Protease FITC Assay)
Assay type: biochemical
Details: for Ki: read-out: HIV-1 FITC Ki
Outline: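 Percent inhibition was read as fluorescence after avidin-bead capture and filtration separated FITC cleavage product from biotinylated substrate. Enzyme and substrate reacted 1 h, RT, dark, at pH 5.5 (0.1 M sodium acetate, 1.0 M NaCl, 0.05% NP-40).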

[1] = HIV-1 Dose 10.000 uM, read-out: HIV-1 Protease % Inhib
[2] = HIV-1 Dose 1.000 uM, read-out: HIV-1 Protease % Inhib
[3] = HIV-1 Dose 100.000 uM, read-out: HIV-1 Protease % Inhib

Structure (SMILES): O=c1oc(C(CC2CC2)CC2CC2)cc(O)c1C(Cc1ccccc1)Cc1ccccc1 [Example 79, 3-(1-Benzyl-2-phenyl-ethyl)-6-(2-cyclopropyl-1-cyclopropylmethyl-ethyl)-4-hydroxy-pyran-2-one]
- inhibition at 0.123 µM (HIV-1 Dose 0.123 uM, read-out: HIV-1 Protease % Inhib): 39.9%
- inhibition at 0.37 µM (HIV-1 Dose 0.370 uM, read-out: HIV-1 Protease % Inhib): 76.7%
- inhibition at 1.1 µM (HIV-1 Dose 1.100 uM, read-out: HIV-1 Protease % Inhib): 106%
- inhibition at 3.3 µM (HIV-1 Dose 3.300 uM, read-out: HIV-1 Protease % Inhib): 111%
- inhibition at 10 µM [1]: 122%
- inhibition at 30 µM (HIV-1 Dose 30.000 uM, read-out: HIV-1 Protease % Inhib): 117%
- Ki: 0.033 µM

Structure (SMILES): CC(C)CC(CC(C)C)c1cc(O)c(C(c2ccccc2)C2CC2)c(=O)o1 (centres unmarked) [Example 80, 3-(Cyclopropyl-phenyl-methyl)-4-hydroxy-6-(1-isobutyl-3-methyl-butyl)-pyran-2-one]
- inhibition at 1 µM [2]: 50.5%
- inhibition at 10 µM [1]: 78.9%
- inhibition at 100 µM [3]: 102%

Structure (SMILES): O=c1oc(C(CC2CC2)CC2CC2)cc(O)c1C(c1ccccc1)C1CC1 (centres unmarked) [Example 81]
- HIV-1 Protease % Inhib (HIV-1 Dose 1.000 uM): 41.76%
- HIV-1 Protease % Inhib (HIV-1 Dose 10.000 uM): 76.98%
- HIV-1 Protease % Inhib (HIV-1 Dose 100.000 uM): 83.48% and 83.5%
- HIV-1 Protease % Inhib (dose not given): <10%
- Ki: 0.031 µM

Structure (SMILES): O=c1oc(CCc2ccccc2)cc(O)c1C(C1CC1)C1CC1 [Example 82, 3-Dicyclopropylmethyl-4-hydroxy-6-phenethyl-pyran-2-one]
- inhibition at 1 µM [2]: 19.8%
- inhibition at 10 µM [1]: 90.9%
- inhibition at 100 µM [3]: 106%

Structure (SMILES): CC(c1cc(O)c(C(C2CC2)C2CC2)c(=O)o1)C1CC1 (centres unmarked) [Example 83, 6-(1-Cyclopropyl-ethyl)-3-dicyclopropylmethyl-4-hydroxy-pyran-2-one]
- inhibition at 1 µM [2]: 10.5%
- inhibition at 10 µM [1]: 72%
- inhibition at 100 µM [3]: 93.5%

Structure (SMILES): CC(CC1CC1)(c1cc(O)c(C(C2CC2)C2CC2)c(=O)o1)C1CC1 (centres unmarked) [Example 84, 6-(1-Cyclopropyl-1-cyclopropylmethyl-ethyl)-3-dicyclopropylmethyl-4-hydroxy-pyran-2-one]
- inhibition at 1 µM [2]: 54.8%
- inhibition at 10 µM [1]: 91%
- HIV-1 Protease % Inhib (HIV-1 Dose 100.000 uM): 120.09% and 100%

Structure (SMILES): CCC(CC1CCCCC1)c1cc(O)c(C(c2ccccc2)C2CC2)c(=O)o1 (centres unmarked) [Example 85, 6-(1-Cyclohexylmethyl-propyl)-3-(cyclopropyl-phenyl-methyl)-4-hydroxy-pyran-2-one]
- inhibition at 1 µM [2]: 11.6%
- inhibition at 10 µM [1]: 77%
- inhibition at 100 µM [3]: 92.1%

Structure (SMILES): CCC(c1ccccc1)c1c(O)cc(C(CC2CC2)CC2CC2)oc1=O (centres unmarked) [Example 87, 6-(2-Cyclopropyl-1-cyclopropylmethyl-ethyl)-4-hydroxy-3(1-phenyl-propyl)-pyran-2-one]
- inhibition at 1 µM [2]: 17.8%
- inhibition at 10 µM [1]: 83.8%
- inhibition at 100 µM [3]: 90.2%

Structure (SMILES): O=c1oc(C(Cc2ccccc2)CC2CC2)cc(O)c1C(c1ccccc1)C1CC1 (centres unmarked) [Example 88, 6-(1-Benzyl-2-cyclopropyl-ethyl)-3-(cyclopropyl-phenyl-methyl)-4-hydroxy-pyran-2-one]
- inhibition at 1 µM [2]: 46.2%
- inhibition at 10 µM [1]: 60.8%
- inhibition at 100 µM [3]: 95.1%

Structure (SMILES): O=c1oc(CCC2CC2)cc(O)c1C(c1ccccc1)C1CC1 (centres unmarked) [Example 89, 6-(2-Cyclopropyl-ethyl)-3-(cyclopropyl-phenyl-methyl)-4-hydroxy-pyran-2-one]
- inhibition at 1 µM [2]: < 10%
- inhibition at 10 µM [1]: 70%
- inhibition at 100 µM [3]: 84%
- HIV-1 Protease % Inhib (dose not given): <10%

Structure (SMILES): CCC(CC1CC1)c1cc(O)c(C(c2ccccc2)C2CC2)c(=O)o1 (centres unmarked) [Example 90, 6-(1-Cyclopropylmethyl-propyl)-3-(cyclopropyl-phenyl-methyl)-4-hydroxy-pyran-2-one]
- inhibition at 1 µM [2]: 61.2%
- inhibition at 10 µM [1]: 95.1%
- HIV-1 Protease % Inhib (HIV-1 Dose 100.000 uM): 96%
- inhibition at 100 µM [3]: 95.9%

Structure (SMILES): O=c1oc(CCCCc2ccccc2)cc(O)c1C(c1ccccc1)C1CC1 (centres unmarked) [Example 91, 3-(Cyclopropyl-phenyl-methyl)-4-hydroxy-6-(4-phenyl-butyl)-pyran-2-one]
- inhibition at 1 µM [2]: < 10%
- inhibition at 10 µM [1]: 27.8%
- inhibition at 100 µM [3]: 62%

Structure (SMILES): O=c1oc(C(CC2CC2)CC2CC2)cc(O)c1C(C1CCCCC1)C1CC1 (centres unmarked) [Example 92, 3-(Cyclohexyl-cyclopropyl-methyl)-6-(2-cyclopropyl-1-cyclopropylmethyl-ethyl)-4-hydroxy-pyran-2-one]
- inhibition at 1 µM [2]: 38.3%
- inhibition at 10 µM [1]: 80.9%
- inhibition at 100 µM [3]: 87.1%

Structure (SMILES): CCC(CCCc1ccccc1)c1cc(O)c(C(c2ccccc2)C2CC2)c(=O)o1 (centres unmarked) [Example 93, 3-(Cyclopropyl-phenyl-methyl)-6-(1-ethyl-4-phenyl-butyl)-4-hydroxy-pyran-2-one]
- HIV-1 Protease % Inhib (HIV-1 Dose 10.000 uM): 67.65% and 71.27%
- inhibition at 10 µM [1]: 72.6%
- HIV-1 Protease % Inhib (HIV-1 Dose 100.000 uM): 59.48% and 67.68%
- inhibition at 100 µM [3]: 79.3%
- HIV-1 Protease % Inhib (dose not given): <10%

Structure (SMILES): O=c1oc(CCCC2CCCCC2)cc(O)c1C(c1ccccc1)C1CC1 (centres unmarked) [Example 94, 6-(3-Cyclohexyl-propyl)-3-(cyclopropyl-phenyl-methyl)-4-hydroxy-pyran-2-one]
- inhibition at 1 µM [2]: < 10%
- inhibition at 10 µM [1]: 25%
- inhibition at 100 µM [3]: 52.4%

Structure (SMILES): CCC(CCC1CCCCC1)c1cc(O)c(C(c2ccccc2)C2CC2)c(=O)o1 (centres unmarked) [Example 95, 6-(3-Cyclohexyl-1-ethyl-propyl)-3-(cyclopropyl-phenyl-methyl)-4-hydroxy-pyran-2-one]
- inhibition at 1 µM [2]: < 10%
- inhibition at 10 µM [1]: 33.6%
- inhibition at 100 µM [3]: 41%

Structure (SMILES): CCC(c1ccccc1)c1c(O)cc(CCC2CC2)oc1=O (centres unmarked) [Example 96, 6-(2-Cyclopropyl-ethyl)-4-hydroxy-3-(1-phenyl-propyl)-pyran-2-one]
- inhibition at 1 µM [2]: 27.9%
- inhibition at 10 µM [1]: 77%
- inhibition at 100 µM [3]: 90.5%
- Ki: 1.4 µM

Structure (SMILES): C=CCC(CC=C)c1cc(O)c(C(c2ccccc2)C2CC2)c(=O)o1 (centres unmarked) [Example 97, 6-(1-Allyl-but-3-enyl)-3-(cyclopropyl-phenyl-methyl)-4-hydroxy-pyran-2-one]
- inhibition at 1 µM [2]: 75.9%
- inhibition at 10 µM [1]: 99.6%
- inhibition at 100 µM [3]: 110%
- Ki: 0.1 µM

Structure (SMILES): C=CCCc1cc(O)c(C(c2ccccc2)C2CC2)c(=O)o1 (centres unmarked) [Example 98, 6-But-3-enyl-3-(cyclopropyl-phenyl-methyl)-4-hydroxy-pyran-2-one]
- inhibition at 1 µM [2]: 50.8%
- inhibition at 10 µM [1]: 93.5%
- inhibition at 100 µM [3]: 110%

Structure (SMILES): CCC(CCc1ccccc1)c1cc(O)c(C(c2ccccc2)C2CC2)c(=O)o1 (centres unmarked) [Example 99, 3-(Cyclopropyl-phenyl-methyl)-6-(1-ethyl-3-phenyl-propyl)-4-hydroxy-pyran-2-one]
- inhibition at 1 µM [2]: 71.5%
- inhibition at 10 µM [1]: 99.6%
- inhibition at 100 µM [3]: 90.7%

Structure (SMILES): CCC(c1ccccc1)c1c(O)c(Br)c(CCC2CC2)oc1=O (centres unmarked) [Example 100, 5-Bromo-6-(2-cyclopropyl-ethyl)-4-hydroxy-3-(1-phenyl-propyl)-pyran-2-one]
- inhibition at 1 µM [2]: 38.3%
- inhibition at 10 µM [1]: 94.6%
- inhibition at 100 µM [3]: 104%
- Ki: 0.48 µM

Structure (SMILES): CCC(c1ccccc1)c1c(O)cc(C(Cc2ccccc2)Cc2ccccc2)oc1=O (centres unmarked) [Example 101, 6-(1-Benzyl-2-phenyl-ethyl)-4-hydroxy-3-(1-phenyl-propyl)-pyran-2-one]
- inhibition at 1 µM [2]: 52.2%
- inhibition at 10 µM [1]: 78.8%
- inhibition at 100 µM [3]: 97.9%

Structure (SMILES): COCCOCCCc1cc(O)c(C(c2ccccc2)C2CC2)c(=O)o1 (centres unmarked) [Example 102, 3-(Cyclopropyl-phenyl-methyl)-4-hydroxy-6-(3-(2-methoxy-ethoxy)-propyl)-pyran-2-one]
- inhibition at 1 µM [2]: 33.8%
- inhibition at 10 µM [1]: 62.2%
- inhibition at 100 µM [3]: 105%
- Ki: 1.52 µM

Structure (SMILES): COCCOCCCc1oc(=O)c(C(c2ccccc2)C2CC2)c(O)c1CCOCCOC (centres unmarked) [Example 103]
- inhibition at 1 µM [2]: 26.6%
- inhibition at 10 µM [1]: 31.3%
- inhibition at 100 µM [3]: 83%
